According to patent US20070128217A1 (priority 2003, published 2007):

Key:
[1] = tested on: antibodies in sera from SARS patients (sera 1a, 1b, 2, 6, 37, 62, London, SARS-yellow, SARS-green); format: binding, human; parameters: Binding of serum 6 to linear peptides of protein X1 of SARS-CoV Urbani / Binding of serum 37 to linear peptides of protein X1 of SARS-CoV Urbani / Binding of serum 6 to looped/cyclic peptide (PEPSCAN-ELISA) / Binding of serum 37 to looped/cyclic peptide (PEPSCAN-ELISA) / Binding of serum 37 to looped/cyclic peptides of protein X1 of SARS-CoV Urbani / Binding of serum 6 to linear peptides of protein X2 / Binding of serum 37 to linear peptides of protein X2 / Binding of serum 37 to looped/cyclic peptides of protein X2 of SARS-CoV Urbani / Binding of serum 6 to linear peptides of protein M of SARS-CoV Urbani / Binding of serum 37 to linear peptides of protein M of SARS-CoV Urbani / Binding of serum 6 to looped/cyclic peptides of protein M of SARS-CoV Urbani / Binding of serum 37 to looped/cyclic peptides of protein M of SARS-CoV Urbani / Binding of serum 6 to linear peptides of protein X3 of SARS-CoV Urbani / Binding of serum 37 to linear peptides of protein X3 of SARS-CoV Urbani / Binding of serum 37 to looped/cyclic peptides of protein X3 of SARS-CoV Urbani / Binding of serum 6 to linear peptides of protein X4 of SARS-CoV Urbani / Binding of serum 37 to linear peptides of protein X4 of SARS-CoV Urbani / Binding of serum 37 to looped/cyclic peptides of protein X4 of SARS-CoV Urbani / Binding of serum 6 to linear peptides of protein X5 of SARS-CoV Urbani / Binding of serum 37 to linear peptides of protein X5 of SARS-CoV Urbani / Binding of serum 37 to looped/cyclic peptides of protein X5 of SARS-CoV Urbani / Binding of serum 6 to linear peptides of protein N of SARS-CoV Urbani / Binding of serum 37 to linear peptides of protein N of SARS-CoV Urbani / Binding of serum 6 to linear peptide (PEPSCAN-ELISA) / Binding of serum 1a to looped/cyclic peptides of protein N of SARS-CoV Urbani / Binding of serum 1b to looped/cyclic peptides of protein N of SARS-CoV Urbani / Binding of serum 2 to looped/cyclic peptides of protein N of SARS-CoV Urbani / Binding of serum 6 to looped/cyclic peptides of protein N of SARS-CoV Urbani / Binding of serum 37 to looped/cyclic peptides of protein N of SARS-CoV Urbani / Binding of serum 62 to looped/cyclic peptides of protein N of SARS-CoV Urbani / Binding of serum London to looped/cyclic peptides of protein N of SARS-CoV Urbani / Binding of serum SARS-green to looped/cyclic peptides of protein N of SARS-CoV Urbani: unit not given here
[2] = tested on: rabbit serum obtained by immunizing a rabbit with the SARS-CoV strain Frankfurt 1; format: binding; parameters: Binding of a rabbit serum to linear peptides / Binding of a rabbit serum to looped peptides / Rabbit serum linear peptides / Rabbit serum looped peptides / Binding of a rabbit serum to linear peptides of protein N of SARS-CoV Urbani (Rabbit serum linear peptides) / Binding of a rabbit serum to looped/cyclic peptides of protein N of SARS-CoV Urbani (Rabbit serum looped peptides): unit not given here
[3] = tested on: control sera (pooled serum of ten healthy LUMC hospital workers; commercial negative donor pooled serum from the Dutch bloodbank); format: binding, human; parameters: Binding of Control serum LUMC to linear peptides / Binding of Control serum Blood-bank to linear peptides / Binding of Control serum LUMC to looped peptides / Binding of Control Serum Blood-Bank to Looped peptides / Binding of Control serum LUMC to linear peptides of the protein M of SARS-CoV Urbani / Binding of Control serum Blood-bank to linear peptides of the protein M of SARS-CoV Urbani / Binding of Control serum LUMC to looped peptides of the protein M of SARS-CoV Urbani / Binding of Control Serum Blood-Bank to Looped peptides of the protein M of SARS-CoV Urbani: unit not given here

Sequence: TFRIAIWNLDVIISS
- Binding of serum 1a to linear peptides of protein X3 of SARS-CoV Urbani [1]: 0.8
- Binding of serum 1a to looped/cyclic peptides of protein X3 of SARS-CoV Urbani [1]: 0.7
- Binding of serum 1b to linear peptides of protein X3 of SARS-CoV Urbani [1]: 0.5
- Binding of serum 1b to looped/cyclic peptides of protein X3 of SARS-CoV Urbani [1]: 0.5
- Binding of serum 2 to linear peptides of protein X3 of SARS-CoV Urbani [1]: 0.6
- Binding of serum 2 to looped/cyclic peptides of protein X3 of SARS-CoV Urbani [1]: 0.6
- Binding of serum 6 to linear peptides of protein X3 of SARS-CoV Urbani [1]: 0.5
- Binding of serum 6 to looped/cyclic peptides of protein X3 of SARS-CoV Urbani [1]: 0.3
- Binding of serum 37 to linear peptides of protein X3 of SARS-CoV Urbani [1]: 0.6
- Binding of serum 37 to looped/cyclic peptides of protein X3 of SARS-CoV Urbani [1]: 0.6
- Binding of serum 62 to linear peptides of protein X3 of SARS-CoV Urbani [1]: 0.7
- Binding of serum 62 to looped/cyclic peptides of protein X3 of SARS-CoV Urbani [1]: 0.7
- Binding of serum London to linear peptides of protein X3 of SARS-CoV Urbani [1]: 0.7
- Binding of serum London to looped/cyclic peptides of protein X3 of SARS-CoV Urbani [1]: 0.2
- Binding of serum SARS-green to linear peptides of protein X3 of SARS-CoV Urbani [1]: 0.4
- Binding of serum SARS-green to looped/cyclic peptides of protein X3 of SARS-CoV Urbani [1]: 0.2
- Binding of serum SARS-yellow to linear peptides of protein X3 of SARS-CoV Urbani [1]: 0.6
- Binding of serum SARS-yellow to looped/cyclic peptides of protein X3 of SARS-CoV Urbani [1]: 0.5
- Rabbit serum linear peptides [2]: 0.3
- Rabbit serum looped peptides [2]: 0.4
- Binding of Control Serum Blood-Bank to Looped peptides of the protein X3 of SARS-CoV Urbani [3]: 0.8
- Binding of Control serum Blood-bank to linear peptides of the protein X3 of SARS-CoV Urbani [3]: 0.8
- Binding of Control serum LUMC to linear peptides of the protein X3 of SARS-CoV Urbani [3]: 0.7
- Binding of Control serum LUMC to looped peptides of the protein X3 of SARS-CoV Urbani [3]: 0.6

Sequence: THFAFACADGTRHTY
- Binding of serum 1a to linear peptides of protein X4 of SARS-CoV Urbani [1]: 0.7
- Binding of serum 1a to looped/cyclic peptides of protein X4 of SARS-CoV Urbani [1]: 0.7
- Binding of serum 1b to linear peptides of protein X4 of SARS-CoV Urbani [1]: 0.5
- Binding of serum 1b to looped/cyclic peptides of protein X4 of SARS-CoV Urbani [1]: 0.5
- Binding of serum 2 to linear peptides of protein X4 of SARS-CoV Urbani [1]: 0.5
- Binding of serum 2 to looped/cyclic peptides of protein X4 of SARS-CoV Urbani [1]: 0.5
- Binding of serum 6 to linear peptides of protein X4 of SARS-CoV Urbani [1]: 0.6
- Binding of serum 6 to looped/cyclic peptides of protein X4 of SARS-CoV Urbani [1]: 0.5
- Binding of serum 37 to linear peptides of protein X4 of SARS-CoV Urbani [1]: 0.6
- Binding of serum 37 to looped/cyclic peptides of protein X4 of SARS-CoV Urbani [1]: 0.6
- Binding of serum 62 to linear peptides of protein X4 of SARS-CoV Urbani [1]: 0.7
- Binding of serum 62 to looped/cyclic peptides of protein X4 of SARS-CoV Urbani [1]: 0.6
- Binding of serum London to linear peptides of protein X4 of SARS-CoV Urbani [1]: 0.7
- Binding of serum London to looped/cyclic peptides of protein X4 of SARS-CoV Urbani [1]: 0.3
- Binding of serum SARS-green to linear peptides of protein X4 of SARS-CoV Urbani [1]: 0.5
- Binding of serum SARS-green to looped/cyclic peptides of protein X4 of SARS-CoV Urbani [1]: 0.4
- Binding of serum SARS-yellow to linear peptides of protein X4 of SARS-CoV Urbani [1]: 0.2
- Binding of serum SARS-yellow to looped/cyclic peptides of protein X4 of SARS-CoV Urbani [1]: 0.5
- Rabbit serum linear peptides [2]: 0.4
- Rabbit serum looped peptides [2]: 0.5
- Binding of Control Serum Blood-Bank to Looped peptides [3]: 0.7
- Binding of Control serum Blood-bank to linear peptides [3]: 0.7
- Binding of Control serum LUMC to linear peptides [3]: 0.7
- Binding of Control serum LUMC to looped peptides [3]: 0.7

Sequence: THITMTTVYHITVSQ
- Binding of serum 1a to linear peptides of protein X2 [1]: 0.6
- Binding of serum 1a to looped/cyclic peptides of protein X2 of SARS-CoV Urbani [1]: 0.6
- Binding of serum 1b to linear peptides of protein X2 [1]: 0.5
- Binding of serum 1b to looped/cyclic peptides of protein X2 of SARS-CoV Urbani [1]: 0.6
- Binding of serum 2 to linear peptides of protein X2 [1]: 0.4
- Binding of serum 2 to looped/cyclic peptides of protein X2 of SARS-CoV Urbani [1]: 0.3
- Binding of serum 6 to linear peptides of protein X2 [1]: 0.6
- Binding of serum 6 to looped/cyclic peptides of protein X2 of SARS-CoV Urbani [1]: 0.2
- Binding of serum 37 to linear peptides of protein X2 [1]: 0.7
- Binding of serum 37 to looped/cyclic peptides of protein X2 of SARS-CoV Urbani [1]: 0.5
- Binding of serum 62 to linear peptides of protein X2 [1]: 0.4
- Binding of serum 62 to looped/cyclic peptides of protein X2 of SARS-CoV Urbani [1]: 0.6
- Binding of serum London to linear peptides of protein X2 [1]: 0.4
- Binding of serum London to looped/cyclic peptides of protein X2 of SARS-CoV Urbani [1]: 0.2
- Binding of serum SARS-green to linear peptides of protein X2 [1]: 0.4
- Binding of serum SARS-green to looped/cyclic peptides of protein X2 of SARS-CoV Urbani [1]: 0.3
- Binding of serum SARS-yellow to linear peptides of protein X2 [1]: 0.5
- Binding of serum SARS-yellow to looped/cyclic peptides of protein X2 of SARS-CoV Urbani [1]: 0.5
- Binding of a rabbit serum to linear peptides [2]: 0.7
- Binding of a rabbit serum to looped peptides [2]: 0.4
- Binding of Control Serum Blood-Bank to Looped peptides [3]: 0.6
- Binding of Control serum Blood-bank to linear peptides [3]: 0.3
- Binding of Control serum LUMC to linear peptides [3]: 0.8
- Binding of Control serum LUMC to looped peptides [3]: 0.7

Sequence: TIVTRPLMESELVIG
- Binding of serum 1a to linear peptides of protein M of SARS-CoV Urbani [1]: 0.8
- Binding of serum 1b to linear peptides of protein M of SARS-CoV Urbani [1]: 0.6
- Binding of serum 2 to linear peptides of protein M of SARS-CoV Urbani [1]: 0.6
- Binding of serum 6 to linear peptides of protein M of SARS-CoV Urbani [1]: 0.4
- Binding of serum 37 to linear peptides of protein M of SARS-CoV Urbani [1]: 0.7
- Binding of serum 62 to linear peptides of protein M of SARS-CoV Urbani [1]: 0.9
- Binding of serum London to linear peptides of protein M of SARS-CoV Urbani [1]: 0.3
- Binding of serum SARS-green to linear peptides of protein M of SARS-CoV Urbani [1]: 0.3
- Binding of serum SARS-yellow to linear peptides of protein M of SARS-CoV Urbani [1]: 0.1
- Recognition of the peptide by sera of SARS-CoV infected individuals, and form (linear, looped/cyclic) in which it is recognized [1]: recognized in looped/cyclic form
- Rabbit serum linear peptides [2]: 0.3
- Rabbit serum looped peptides [2]: 0.3
- Binding of Control Serum Blood-Bank to Looped peptides of the protein M of SARS-CoV Urbani [3]: 0.9
- Binding of Control serum Blood-bank to linear peptides of the protein M of SARS-CoV Urbani [3]: 0.8
- Binding of Control serum LUMC to linear peptides of the protein M of SARS-CoV Urbani [3]: 0.5
- Binding of Control serum LUMC to looped peptides of the protein M of SARS-CoV Urbani [3]: 1.0

Sequence: TIYSHLLLVAAGMEA
- Binding of serum 1a to linear peptides of protein X1 of SARS-CoV Urbani [1]: 0.6
- Binding of serum 1a to looped/cyclic peptide (PEPSCAN-ELISA) [1]: 0.5
- Binding of serum 1b to linear peptides of protein X1 of SARS-CoV Urbani [1]: 0.5
- Binding of serum 1b to looped/cyclic peptide (PEPSCAN-ELISA) [1]: 0.4
- Binding of serum 2 to linear peptides of protein X1 of SARS-CoV Urbani [1]: 0.4
- Binding of serum 2 to looped/cyclic peptide (PEPSCAN-ELISA) [1]: 0.3
- Binding of serum 6 to linear peptides of protein X1 of SARS-CoV Urbani [1]: 0.3
- Binding of serum 6 to looped/cyclic peptide (PEPSCAN-ELISA) [1]: 0.3
- Binding of serum 37 to linear peptides of protein X1 of SARS-CoV Urbani [1]: 0.5
- Binding of serum 37 to looped/cyclic peptide (PEPSCAN-ELISA) [1]: 0.5
- Binding of serum 62 to linear peptides of protein X1 of SARS-CoV Urbani [1]: 0.4
- Binding of serum 62 to looped/cyclic peptide (PEPSCAN-ELISA) [1]: 0.5
- Binding of serum London to linear peptides of protein X1 of SARS-CoV Urbani [1]: 0.2
- Binding of serum London to looped/cyclic peptide (PEPSCAN-ELISA) [1]: 0.2
- Binding of serum SARS-green to linear peptides of protein X1 of SARS-CoV Urbani [1]: 0.3
- Binding of serum SARS-green to looped/cyclic peptide (PEPSCAN-ELISA) [1]: 0.2
- Binding of serum SARS-yellow to linear peptides of protein X1 of SARS-CoV Urbani [1]: 0.5
- Binding of serum SARS-yellow to looped/cyclic peptide (PEPSCAN-ELISA) [1]: 0.3
- Binding of a rabbit serum to linear peptides [2]: 0.1
- Binding of a rabbit serum to looped peptides [2]: 0.4
- Binding of Control Serum Blood-Bank to Looped peptides [3]: 0.5
- Binding of Control serum Blood-bank to linear peptides [3]: 0.4
- Binding of Control serum LUMC to linear peptides [3]: 0.4
- Binding of Control serum LUMC to looped peptides [3]: 0.6
